# Reference: patent publication US9738630B2, “Inhibitors of lysine methyl transferase” (BRISTOL-MYERS SQUIBB COMPANY, priority 2013, dated 2017)
# pEC50: −log10 of the molar value.
# Target: recombinant EZH2-641F complex (EZH2 Y641F/EED/SUZ12/RbAp48/AEBP2) (Homo sapiens (Human), UniProt Q15910, Y641F)
# Test: EZH2 Histone Methyl Transferase Assay (scintillation proximity assay)
# Type: biochemical
# Settings: 350 nM histone peptide substrate, 500 nM 3H-SAM, 3 hours at room temperature
# Text: EZH2 Histone Methyl Transferase Assay
# The effectiveness of compounds of the present invention as inhibitors of hitone methyl transferases can be readily tested by assays known to those skilled in the art. For example, in vitro histone methyl transferase assays may be conducted with a relevant purified histone methyl transferase and an appropriate synthetic substrate to determine the inhibitory activity of the compounds. […] Reaction products were captured by binding to strepavidin-conjugated imaging beads. Incorporation of radioactive methyl group into the histone peptide substrate was determined in Leadseeker (GE Healthcare) by means of scintiallation proximity assay. […] Compounds were dissolved at 10 mM in dimethylsulfoxide (DMSO) and evaluated at eleven concentrations. EC50 values were derived by non-linear regression analysis.
# Sequence of recombinant EZH2-641F complex (EZH2 Y641F/EED/SUZ12/RbAp48/AEBP2) (Q15910 whole entry Y641F): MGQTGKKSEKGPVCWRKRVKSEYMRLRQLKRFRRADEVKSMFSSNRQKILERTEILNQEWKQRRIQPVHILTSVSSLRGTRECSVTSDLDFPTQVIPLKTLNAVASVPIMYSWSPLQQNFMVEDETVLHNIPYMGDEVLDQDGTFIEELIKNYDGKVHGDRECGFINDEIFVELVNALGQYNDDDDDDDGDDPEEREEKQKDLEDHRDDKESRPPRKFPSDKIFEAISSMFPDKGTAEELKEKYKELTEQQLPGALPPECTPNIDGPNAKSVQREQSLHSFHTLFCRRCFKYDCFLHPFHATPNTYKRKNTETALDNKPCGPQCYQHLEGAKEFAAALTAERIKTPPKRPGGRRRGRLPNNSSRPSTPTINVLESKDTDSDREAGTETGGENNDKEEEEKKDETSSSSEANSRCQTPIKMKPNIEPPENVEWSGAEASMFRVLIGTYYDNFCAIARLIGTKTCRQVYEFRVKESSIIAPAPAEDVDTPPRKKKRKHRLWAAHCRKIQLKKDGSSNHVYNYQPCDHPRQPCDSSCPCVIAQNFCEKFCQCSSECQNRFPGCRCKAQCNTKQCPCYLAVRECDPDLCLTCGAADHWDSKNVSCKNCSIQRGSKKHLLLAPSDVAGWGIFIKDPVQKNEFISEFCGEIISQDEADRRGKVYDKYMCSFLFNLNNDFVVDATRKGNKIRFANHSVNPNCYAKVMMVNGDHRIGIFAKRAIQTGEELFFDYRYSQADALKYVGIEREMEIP
# Sequence of recombinant EZH2-641F complex (EZH2 Y641F/EED/SUZ12/RbAp48/AEBP2) (O75530 whole entry partner): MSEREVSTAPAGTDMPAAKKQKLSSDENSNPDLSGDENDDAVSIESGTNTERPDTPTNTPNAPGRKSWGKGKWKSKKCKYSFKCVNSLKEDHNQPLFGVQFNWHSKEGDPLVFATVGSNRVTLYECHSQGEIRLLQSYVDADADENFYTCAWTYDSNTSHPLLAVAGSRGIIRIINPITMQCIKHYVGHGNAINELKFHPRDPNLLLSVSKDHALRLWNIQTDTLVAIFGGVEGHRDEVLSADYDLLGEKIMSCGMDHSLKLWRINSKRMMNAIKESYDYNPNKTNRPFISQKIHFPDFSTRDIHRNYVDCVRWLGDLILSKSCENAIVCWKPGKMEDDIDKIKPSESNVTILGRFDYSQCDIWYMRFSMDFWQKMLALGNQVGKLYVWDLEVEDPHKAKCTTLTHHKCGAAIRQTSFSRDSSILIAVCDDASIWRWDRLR
# Sequence of recombinant EZH2-641F complex (EZH2 Y641F/EED/SUZ12/RbAp48/AEBP2) (Q15022 whole entry partner): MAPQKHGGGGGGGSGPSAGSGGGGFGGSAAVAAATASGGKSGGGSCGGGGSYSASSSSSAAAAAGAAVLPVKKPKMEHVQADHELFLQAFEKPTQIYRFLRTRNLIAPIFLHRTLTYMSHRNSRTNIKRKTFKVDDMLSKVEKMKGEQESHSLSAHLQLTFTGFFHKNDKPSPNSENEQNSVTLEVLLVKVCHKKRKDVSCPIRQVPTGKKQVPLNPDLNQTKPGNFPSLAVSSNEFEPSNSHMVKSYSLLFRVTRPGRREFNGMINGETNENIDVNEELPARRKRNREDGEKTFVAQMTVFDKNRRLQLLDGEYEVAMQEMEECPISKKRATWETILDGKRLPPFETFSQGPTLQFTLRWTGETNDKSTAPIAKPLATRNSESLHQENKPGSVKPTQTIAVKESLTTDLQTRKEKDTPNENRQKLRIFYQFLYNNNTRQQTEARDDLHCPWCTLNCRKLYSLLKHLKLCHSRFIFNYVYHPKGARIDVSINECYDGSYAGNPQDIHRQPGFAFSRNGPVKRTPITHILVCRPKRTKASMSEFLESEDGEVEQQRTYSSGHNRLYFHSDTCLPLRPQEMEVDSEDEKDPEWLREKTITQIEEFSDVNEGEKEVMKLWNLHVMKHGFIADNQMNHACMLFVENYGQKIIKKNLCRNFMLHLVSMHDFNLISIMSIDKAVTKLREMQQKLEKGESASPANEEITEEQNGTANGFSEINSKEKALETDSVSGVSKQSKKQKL
# Sequence of recombinant EZH2-641F complex (EZH2 Y641F/EED/SUZ12/RbAp48/AEBP2) (Q09028 whole entry partner): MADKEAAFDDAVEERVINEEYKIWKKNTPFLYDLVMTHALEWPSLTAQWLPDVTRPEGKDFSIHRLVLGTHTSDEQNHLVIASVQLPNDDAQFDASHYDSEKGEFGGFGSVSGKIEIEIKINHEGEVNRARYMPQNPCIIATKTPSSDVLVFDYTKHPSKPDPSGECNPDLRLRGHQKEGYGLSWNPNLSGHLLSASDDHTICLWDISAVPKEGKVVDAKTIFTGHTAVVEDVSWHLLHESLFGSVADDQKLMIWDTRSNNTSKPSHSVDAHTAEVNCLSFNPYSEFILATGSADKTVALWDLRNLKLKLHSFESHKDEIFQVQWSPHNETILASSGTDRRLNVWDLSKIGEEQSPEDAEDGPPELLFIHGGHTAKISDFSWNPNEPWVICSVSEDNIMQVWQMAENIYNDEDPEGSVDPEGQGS
# Sequence of recombinant EZH2-641F complex (EZH2 Y641F/EED/SUZ12/RbAp48/AEBP2) (Q6ZN18 whole entry partner): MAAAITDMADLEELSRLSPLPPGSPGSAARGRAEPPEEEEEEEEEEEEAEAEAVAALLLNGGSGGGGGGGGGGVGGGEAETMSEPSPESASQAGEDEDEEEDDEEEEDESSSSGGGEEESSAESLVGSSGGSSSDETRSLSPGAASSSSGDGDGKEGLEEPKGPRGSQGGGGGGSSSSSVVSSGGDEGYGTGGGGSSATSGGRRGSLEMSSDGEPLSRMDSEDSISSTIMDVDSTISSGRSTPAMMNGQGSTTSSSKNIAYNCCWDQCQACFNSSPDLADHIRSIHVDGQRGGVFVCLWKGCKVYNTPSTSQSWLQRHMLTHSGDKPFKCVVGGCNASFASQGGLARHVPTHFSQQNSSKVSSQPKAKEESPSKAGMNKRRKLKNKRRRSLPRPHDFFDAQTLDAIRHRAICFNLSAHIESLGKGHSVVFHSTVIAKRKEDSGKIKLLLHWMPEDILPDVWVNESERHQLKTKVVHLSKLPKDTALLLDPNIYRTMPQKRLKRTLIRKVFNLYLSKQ
row,Compound,pEC50
1,"CCN(c1cc(-c2ccc(CN3CCOCC3)cc2)cc(C(=O)NCC2C(=O)NC(C)c3cccc(F)c32)c1C)C1CCOCC1 (stereo not shown) [Example 5, 5-(Ethyl(tetrahydro-2H-pyran-4-yl)amino)-N-((5-fluoro-1-methyl-3-oxo-1,2,3,4-tetrahydroisoquinolin-4-yl)methyl)-4-methyl-4′-(morpholinomethyl)-[1,1′-biphenyl]-3-carboxamide]",≥ 5.30
2,"CCC(C)n1cc(C)c2c(C(=O)NCc3c(=O)[nH]c(C)c4ccccc34)cc(-c3ccc(N4CCN(C(=O)OC(C)(C)C)CC4)nc3)cc21 (stereo not shown) [Example 9, tert-Butyl 4-(5-(1-(sec-butyl)-3-methyl-4-(((1-methyl-3-oxo-2,3-dihydroisoquinolin-4-yl)methyl)carbamoyl)-1H-indol-6-yl)pyridin-2-yl)piperazine-1-carboxylate]",≥ 5.30
3,"CCC(C)n1cc(C)c2c(C(=O)NCc3c(=O)[nH]c(C)c4ccccc34)cc(-c3ccc(N4CCNCC4)nc3)cc21 (stereo not shown) [Example 10, 1-(sec-Butyl)-3-methyl-N-((1-methyl-3-oxo-2,3-dihydroisoquinolin-4-yl)methyl)-6-(6-(piperazin-1-yl)pyridin-3-yl)-1H-indole-4-carboxamide]",≥ 6.30
4,"Cc1[nH]c(=O)c(CNC(=O)c2cc3c(c(-c4ccc(N5CCNCC5)nc4)c2)OC(C)(C)C3)c2ccccc12 [Example 17, 2,2-Dimethyl-N-((1-methyl-3-oxo-2,3-dihydroisoquinolin-4-yl)methyl)-7-(6-(piperazin-1-yl)pyridin-3-yl)-2,3-dihydrobenzofuran-5-carboxamide]",≥ 5.30
